Source: patent publication US20250314661A1, “CHEMIGENETIC TOOLS AND METHODS OF CONTROLLING AND ASSESSING PROTEIN PHASE SEPARATION” (THE REGENTS OF THE UNIVERSITY OF CALIFORNIA, priority 2022, published 2025)
Each block holds one molecule with its values, some of them ahead of it.

Assays:
other cells = settings: cells other than multiple myeloma; Siu et al. (2017); cited from earlier work
[1] = target: MYCN fused to FRB and mEGFP (UniProt P04198); assay: cell-based or functional assay
Ctgf = assay: RT-qPCR of YAP target gene Ctgf mRNA; assay type: cell-based; settings: cells transfected with CEL-EGFP-YAP without the ZIF construct
Method: FIG. 6A-D show representative images illustrating that the SparkDrop-Y AP condensates produce nascent RNAs and upregulate a direct target gene of Y AP. […] The cells were short labeled with EU for 1 hour. Arrows point to the induced YAP condensates and the colocalized nascent RNA droplets. Arrowhead points to nucleoli. The nucleus marked by asterisk was not transfected with SparkDrop-YAP. […] Data are shown as meant SD (n=3).
Lastly, whether the SparkDrop-Y AP condensates upregulate mRNA levels of a YAP target gene Ctgf were determined using RT-qPCR. […] As a control, cells were incubated with DMSO. […] Next, a positive control was conducted by incubating cells with sorbitol, which is known to induce osmotic stress and drive YAP condensate formation. […] Lastly, cells were transfected with CEL-EGFP-Y AP (without the ZIF construct), and incubated with lenalidomide or DMSO.

ERK = ERK activity reporter ERK-KTR translocation after lenalidomide-induced SOScat translocation
From the text: The relocated SOScat then activates Ras, which leads to ERK activation via the MAPK pathway.
The presence of SOS in the PM can activate Ras and promote ERK activity via the MAPK pathway (FIG. 2C, left). For targeting SOS to the PM, ZIF was first fused to the CAAX motif tagged with a red fluorescent protein (RFP). Next, CEL was fused to the catalytic domain of SOS (referred to as SOScat), which was tagged with a near infrared fluorescent protein IFP2 that helps visualizing SOScat translocation (FIG. 2C, left). […] To determine whether SOScat translocation activates ERK, a GFP translocation-based ERK activity reporter called ERK-KTR was used, which translocates from the nucleus to the cytoplasm upon activation of endogenous ERK (Regot et al. (2014) Cell 157:1724-1734).

DDB1 = target: T1, DDB1 (UniProt Q16531 1-1140); assay: FLAG pull-down and Western blot against DDB1, HEK293 cells, with or without exogenous DDB1
T1 construct: Tested both as endogenous protein of HEK293 cells and with exogenous over-expression; also called endogenous DDB1; exogenous DDB1
T1 sequence (Q16531 whole entry): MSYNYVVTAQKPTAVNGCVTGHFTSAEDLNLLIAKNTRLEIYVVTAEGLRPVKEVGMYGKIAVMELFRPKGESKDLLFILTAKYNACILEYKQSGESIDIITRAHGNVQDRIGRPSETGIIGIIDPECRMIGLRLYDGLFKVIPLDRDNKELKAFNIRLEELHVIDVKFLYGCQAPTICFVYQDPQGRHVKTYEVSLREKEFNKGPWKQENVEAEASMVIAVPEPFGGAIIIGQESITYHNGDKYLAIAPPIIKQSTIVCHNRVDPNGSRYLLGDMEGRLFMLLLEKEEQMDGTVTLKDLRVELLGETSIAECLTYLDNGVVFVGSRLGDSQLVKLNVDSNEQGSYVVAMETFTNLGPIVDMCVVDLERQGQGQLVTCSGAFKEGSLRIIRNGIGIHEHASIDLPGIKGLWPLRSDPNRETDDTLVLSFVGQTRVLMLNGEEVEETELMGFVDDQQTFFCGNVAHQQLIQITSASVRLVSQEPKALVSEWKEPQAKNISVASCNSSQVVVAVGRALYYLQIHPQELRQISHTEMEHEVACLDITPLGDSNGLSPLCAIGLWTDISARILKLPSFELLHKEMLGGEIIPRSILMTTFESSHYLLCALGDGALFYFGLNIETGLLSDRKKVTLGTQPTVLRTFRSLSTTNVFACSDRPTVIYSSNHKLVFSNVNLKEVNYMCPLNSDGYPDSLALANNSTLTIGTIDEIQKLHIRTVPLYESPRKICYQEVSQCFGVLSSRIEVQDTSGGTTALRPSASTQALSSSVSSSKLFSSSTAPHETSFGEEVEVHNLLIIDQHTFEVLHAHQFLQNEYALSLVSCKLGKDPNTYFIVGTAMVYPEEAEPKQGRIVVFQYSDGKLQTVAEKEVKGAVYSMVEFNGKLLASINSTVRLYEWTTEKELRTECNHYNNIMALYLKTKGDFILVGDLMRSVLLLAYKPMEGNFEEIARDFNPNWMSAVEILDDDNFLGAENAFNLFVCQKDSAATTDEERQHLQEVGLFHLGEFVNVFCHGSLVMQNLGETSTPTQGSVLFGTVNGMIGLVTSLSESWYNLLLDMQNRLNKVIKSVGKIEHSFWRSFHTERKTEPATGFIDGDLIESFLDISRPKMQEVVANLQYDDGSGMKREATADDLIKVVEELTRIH

Chain of MYCN fused to FRB and mEGFP (P04198 other isoform, or with tags, fused parts or gaps): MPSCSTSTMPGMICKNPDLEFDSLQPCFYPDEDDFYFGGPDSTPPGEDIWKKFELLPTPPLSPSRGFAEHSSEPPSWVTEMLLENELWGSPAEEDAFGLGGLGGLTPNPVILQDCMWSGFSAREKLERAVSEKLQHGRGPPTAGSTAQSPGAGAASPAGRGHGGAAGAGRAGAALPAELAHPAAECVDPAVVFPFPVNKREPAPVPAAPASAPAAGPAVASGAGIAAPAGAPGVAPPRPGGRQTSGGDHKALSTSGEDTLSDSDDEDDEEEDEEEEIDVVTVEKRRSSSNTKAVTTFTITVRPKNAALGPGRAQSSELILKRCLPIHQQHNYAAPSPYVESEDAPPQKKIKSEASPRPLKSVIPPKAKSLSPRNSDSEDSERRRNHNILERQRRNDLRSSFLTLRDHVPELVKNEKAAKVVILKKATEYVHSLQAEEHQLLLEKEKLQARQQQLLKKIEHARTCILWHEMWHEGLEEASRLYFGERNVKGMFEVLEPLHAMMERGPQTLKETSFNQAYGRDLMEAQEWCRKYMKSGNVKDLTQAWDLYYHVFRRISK

Molecule: O=C1CCC(N2C(=O)c3ccccc3C2=O)C(=O)N1 (stereo not shown) [thalidomide]
- toxicity in other cells (other cells): no or little toxicity

Molecule: Nc1cccc2c1CN(C1CCC(=O)NC1=O)C2=O (stereo not shown) [lenalidomide]
- Ctgf mRNA, control without ZIF construct (Ctgf): not upregulated
- toxicity in other cells (other cells): no or little toxicity
- ERK-KTR translocation (ERK; cells expressing CEL-IFP2-SOScat and ZIF-RFP-CAAX): translocated from the nucleus to the cytoplasm
- ERK-KTR translocation, control without ZIF (ERK; cells expressing CEL-IFP2-SOScat without ZIF): did not induce ERK-KTR translocation

Results, then the molecule that gave them:

- dissolution of MYCN condensates after addition of rapamycin [1]: 10 min
Molecule: SUMO-mCherry-FKBP (from UniProt P62942 2-108)

- binding result (DDB1): no binding
B1: FLAG-tagged CEL (109 amino acid CRBN C-terminal domain) (other)
chain: SLCCKQCQETEITTKNEIFSLSLCGPMAAYVNPHGYVHETLTVYKACNLNLIGRPSTEHSWFPGYAWTVAQCKICASHIGWKFTATKKDMSPQKFWGLTRSALLPTIPD
notes: Expressed in HEK293 cells; also called CRBN CTD; not shown: FLAG tag
